Experiment [1] concerns E. coli 25922. Put plainly: Experimental systemic septicaemia in the mouse. The class given is in vivo. The following applies: Escherichia coli, sc, 96 h; E. coli 25922, albino mice, s.c. 1 and 3 hours after infection, survival after 4 days; read-out: ED50. In short, it runs like this:
(§1)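 ED50 in mg/kg s.c. is the Probit-derived dose protecting half the mice, judged on survival 4 days after i.p. challenge (about 5-100× 48 h LD50) in 16-20 g albino mice, 5 per group. Dosing was s.c. in 2% Tween 80 at 1 and 3 h, plus 5 h for P. aeruginosa.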

Experiment [2] relates to Pseudomonas aeruginosa BA. Kind of experiment: Experimental systemic septicaemia in the mouse. The class given is in vivo. Conditions: sc, 96 h, P. aeruginosa BA, albino mice, s.c. 1, 3 and 5 hours after infection, survival after 4 days, read-out: ED50. In short, it runs like this:
as §1

A further experiment deals with S. aureus Schoch. Kind of experiment: Experimental systemic septicaemia in the mouse. The class given is in vivo. Conditions: Staphylococcus aureus, sc, 96 h; S. aureus Schoch, albino mice, s.c. 1 and 3 hours after infection, survival after 4 days; read-out: ED50. In short, it runs like this:
as §1

Another experiment deals with E. cloacae 908R. Put plainly: Minimum inhibitory concentration in vitro, agar dilution method. The format is cell-based. The following applies: Enterobacter cloacae; E. cloacae 908R, agar dilution; read-out: MIC. The text has this: (§2) 1. Minimum Inhibitory Concentration in vitro
(§3) The activities ascertained, minimum inhibitory concentration (MIC) in μg/ml, are compiled in Table 1 hereinafter: […]

The next experiment concerns K. pneumoniae 418. The experiment is described as above. The format is cell-based. Conditions: Klebsiella pneumoniae; K. pneumoniae 418, agar dilution; read-out: MIC.
Description: as §2, §3

The subject of a further experiment is K. oxytoca 1082. Described as above. The class given is cell-based. The following applies: Klebsiella oxytoca; K. oxytoca 1082, agar dilution; read-out: MIC.
Description: as §2, §3

A further experiment deals with C. freundii 902. The description is as above. The class given is cell-based. The following applies: Citrobacter freundii; C. freundii 902, agar dilution; read-out: MIC.
Description: as §2, §3

In another experiment the test system is S. pyogenes 15. The description is as above. The class given is cell-based. Conditions: Streptococcus pyogenes; S. pyogenes 15, agar dilution; read-out: MIC.
Description: as §2, §3

The subject of the next experiment is P. vulgaris 1028. Described as above. The class given is cell-based. Conditions: Proteus vulgaris; P. vulgaris 1028, agar dilution; read-out: MIC.
Description: as §2, §3

For the next experiment, the system named is P. mirabilis 2117. Described as above. The format is cell-based. The following applies: Proteus mirabilis; P. mirabilis 2117, agar dilution; read-out: MIC.
Description: as §2, §3

For another experiment, the system named is S. marcescens 69438. The description is as above. The class given is cell-based. Conditions: Serratia marcescens; S. marcescens 69438, agar dilution; read-out: MIC.
Description: as §2, §3

The test system of the next experiment is P. aeruginosa 799/WT. The experiment is described as above. The format is cell-based. Conditions: Pseudomonas aeruginosa; P. aeruginosa 799/WT, agar dilution; read-out: MIC.
Description: as §2, §3

A further experiment relates to E. cloacae 908SSi. The description is as above. The format is cell-based. The following applies: Enterobacter cloacae; E. cloacae 908SSi, agar dilution; read-out: MIC.
Description: as §2, §3

For experiment [3], the system named is E. coli 25922. The experiment is described as above. The format is cell-based. Conditions: Escherichia coli; E. coli 25922, agar dilution; read-out: MIC.
Description: as §2, §3

Another experiment has as its system P. aeruginosa BA. The description is as above. The class given is cell-based. The following applies: Pseudomonas aeruginosa; P. aeruginosa BA, agar dilution; read-out: MIC.
Description: as §2, §3

Another experiment relates to P. aeruginosa 799/61. Described as above. The class given is cell-based. The following applies: Pseudomonas aeruginosa; P. aeruginosa 799/61, agar dilution; read-out: MIC.
Description: as §2, §3

The subject of the next experiment is P. aeruginosa 27853. The description is as above. The class given is cell-based. Conditions: Pseudomonas aeruginosa; P. aeruginosa 27853, agar dilution; read-out: MIC.
Description: as §2, §3

For a further experiment, the system named is S. aureus 6538. The description is as above. The following applies: Staphylococcus aureus; S. aureus 6538, agar dilution; read-out: MIC. The class given is cell-based.
Description: as §2, §3

Another experiment deals with E. cloacae P99. Described as above. The format is cell-based. The following applies: Enterobacter cloacae.
Description: as §2, §3

The test system of another experiment is P. aeruginosa MK1184. The experiment is described as above. The following applies: Pseudomonas aeruginosa; P. aeruginosa MK1184, agar dilution; read-out: MIC. The format is cell-based.
Description: as §2, §3

A further experiment deals with E. aerogenes CF153. The experiment is described as above. The following applies: Klebsiella aerogenes; E. aerogenes CF153, agar dilution; read-out: MIC. The class given is cell-based.
Description: as §2, §3

Values after ≈ are worked out from the molar mass of the structure shown.

Turning to `Cc1cc(SCC2=C(C(=O)O)N3C(=O)[C@@H](NC(=O)/C(=N\OCc4ccc(O)c(O)c4)c4csc(N)n4)[C@H]3SC2)n2nc(CNS(=O)(=O)c3ccc(O)c(O)c3)nc2n1` [Example 4, (6R,7R)-7-[(Z)-2-(2-amino-4-thiazolyl)-2-[[(3,4-dihydroxybenzyl)oxy]imino]acetamido]-3-[[[2-[(3,4-dihydroxybenzenesulphonamido)methyl]-5-methyl-s-triazolo[1,5-a]pyrimidin-7-yl]thio]methyl]-8-oxo-5-thia-1-azabicyclo[4.2.0]oct-2-ene-2carboxylic acid], the ED50 is below 0.1 mg/kg in the experiment with E. coli 25922 [1], 0.12 mg/kg in [2] and 3.1 mg/kg in the experiment on S. aureus Schoch. For the same compound, the MIC in the experiment with E. cloacae 908R is 1 µg/mL (≈ 1.15 µM); in the experiment with K. pneumoniae 418, below 0.1 µg/mL; with K. oxytoca 1082, 16 µg/mL (≈ 18.4 µM); in the experiment on C. freundii 902, below 0.1 µg/mL; in the experiment with S. pyogenes 15, 0.25 µg/mL (≈ 0.287 µM); in the experiment with P. vulgaris 1028 it was 1 µg/mL (≈ 1.15 µM). The MIC in the experiment with P. mirabilis 2117 was 0.25 µg/mL (≈ 0.287 µM); with S. marcescens 69438, 0.12 µg/mL (≈ 0.138 µM); in the experiment with P. aeruginosa 799/WT, 0.25 µg/mL (≈ 0.287 µM); with E. cloacae 908SSi it was 4 µg/mL (≈ 4.59 µM); in the experiment with E. coli 25922 [3] it was below 0.1 µg/mL; in the experiment on P. aeruginosa BA, below 0.1 µg/mL. The MIC in the experiment on P. aeruginosa 799/61 turned out to be 0.12 µg/mL (≈ 0.138 µM); in the experiment on P. aeruginosa 27853, 0.5 µg/mL (≈ 0.574 µM); in the experiment with S. aureus 6538, 4 µg/mL (≈ 4.59 µM); against E. cloacae P99 it was 32 µg/mL (≈ 36.7 µM); with P. aeruginosa MK1184, 0.25 µg/mL (≈ 0.287 µM).
Take `Nc1nc(/C(=N/OCc2ccc(O)c(O)c2F)C(=O)N[C@@H]2C(=O)N3C(C(=O)O)=C(CSc4nc(-c5ccccc5)ncc4-c4ccc(O)c(O)c4)CS[C@H]23)cs1` [Example 15]: the ED50 is 0.9 mg/kg with E. coli 25922 [1] and above 2 mg/kg in experiment [2]. Besides, the MIC in the experiment on E. cloacae 908R is 2 µg/mL (≈ 2.45 µM); with K. pneumoniae 418, below 0.1 µg/mL; in the experiment on K. oxytoca 1082, 0.5 µg/mL (≈ 0.611 µM); with C. freundii 902 it was 0.25 µg/mL (≈ 0.306 µM); in the experiment on S. pyogenes 15 it was 0.12 µg/mL (≈ 0.147 µM); with P. vulgaris 1028, 0.5 µg/mL (≈ 0.611 µM). Also, the MIC with P. mirabilis 2117 is 0.12 µg/mL (≈ 0.147 µM); in the experiment on S. marcescens 69438, 1 µg/mL (≈ 1.22 µM); in the experiment on P. aeruginosa 799/WT, 0.5 µg/mL (≈ 0.611 µM); with E. cloacae 908SSi, 16 µg/mL (≈ 19.6 µM); with E. coli 25922 [3], below 0.1 µg/mL; in the experiment on P. aeruginosa BA, 0.5 µg/mL (≈ 0.611 µM). In addition, the MIC in the experiment on P. aeruginosa 799/61 was below 0.1 µg/mL; in the experiment on P. aeruginosa 27853 it was 1 µg/mL (≈ 1.22 µM); with S. aureus 6538, 32 µg/mL (≈ 39.1 µM); against E. cloacae P99, 16 µg/mL (≈ 19.6 µM); in the experiment on P. aeruginosa MK1184, 32 µg/mL (≈ 39.1 µM); in the experiment with E. aerogenes CF153, 0.12 µg/mL (≈ 0.147 µM).
With `Cc1ncc(-c2ccc(O)c(O)c2)c(SCC2=C(C(=O)O)N3C(=O)[C@@H](NC(=O)/C(=N\OC(C)(C)C(=O)NO)c4csc(N)n4)[C@H]3SC2)n1` [Example 19b], the ED50 in the experiment on E. coli 25922 [1] was 0.78 mg/kg; in experiment [2] it was above 3 mg/kg. The MIC is 2 µg/mL (≈ 2.79 µM) in the experiment with E. cloacae 908R; below 0.1 µg/mL in the experiment on K. pneumoniae 418; 0.5 µg/mL (≈ 0.698 µM) in the experiment with K. oxytoca 1082; below 0.1 µg/mL with C. freundii 902; 0.25 µg/mL (≈ 0.349 µM) in the experiment on S. pyogenes 15; below 0.1 µg/mL in the experiment with P. vulgaris 1028. Further, the MIC in the experiment with P. mirabilis 2117 was 0.25 µg/mL (≈ 0.349 µM); with S. marcescens 69438 it was below 0.1 µg/mL; with P. aeruginosa 799/WT it was 0.25 µg/mL (≈ 0.349 µM); with E. cloacae 908SSi, 2 µg/mL (≈ 2.79 µM); with E. coli 25922 [3], below 0.1 µg/mL; in the experiment with P. aeruginosa BA, 0.5 µg/mL (≈ 0.698 µM). The MIC with P. aeruginosa 799/61 is below 0.1 µg/mL; in the experiment with P. aeruginosa 27853, 0.25 µg/mL (≈ 0.349 µM); in the experiment on S. aureus 6538, 16 µg/mL (≈ 22.3 µM); with E. cloacae P99 it was 8 µg/mL (≈ 11.2 µM); in the experiment with P. aeruginosa MK1184, 8 µg/mL (≈ 11.2 µM); with E. aerogenes CF153, below 0.1 µg/mL.

These data come from patent US5438052A, “Cephalosporin derivatives” (Hoffmann-La Roche Inc., priority 1991, dated 1995).
